From patent US7803821B2, “Fungicide N-cycloalkyl-carboxamide, thiocarboxamide and N-substituted-carboximidamide derivatives” (Bayer Cropscience SA, priority 2006, dated 2010)

Test: log P by HPLC on reversed-phase column (C18), EEC Directive 79/831 Annex V.A8
Type: physicochemical
Details: C18, 40° C., 0.1% aqueous formic acid and acetonitrile, gradient 10% to 90% acetonitrile; for chromatographic logP: reversed-phase HPLC column (C18)
Method: Temperature: 40° C.; Mobile phases: 0.1% aqueous formic acid and acetonitrile; linear gradient from 10% acetonitrile to 90% acetonitrile.

| Compound | logP | chromatographic logP |
| --- | --- | --- |
| CCC(c1ccncc1)N(C(=O)c1cn(C)nc1C(F)F)C1CC1 (centres unmarked) [Example 18] | 1.79 |  |
| CC(c1ncc(Cl)cc1Cl)N(C(=S)c1cn(C)nc1C(F)F)C1CC1 (centres unmarked) [Example 32] | 4.01 |  |
| Cn1cc(C(=O)N(Cc2c(Cl)cncc2Cl)C2CC2)c(C(F)F)n1 [Example 103] | 1.88 |  |
| Cc1cc(C(=O)N(Cc2ccc(Cl)cn2)C2CC2)c(C(F)(F)F)o1 [Example 50] | 3.36 |  |
| Cc1cc(C(=O)N(C2CC2)C(C)c2cnccn2)nn1C (centres unmarked) [Example 46] | 1.45 |  |
| CC(c1cnc(Cl)c(Cl)c1)N(C(=O)c1cn(C)cc1C(F)(F)F)C1CC1 (centres unmarked) [Example 2] | 3.34 |  |
| COc1nn(C)cc1C(=O)N(Cc1ncc(Cl)cc1Cl)C1CC1 [Example 34] | 2.21 |  |
| Cc1cc(C(=O)N(Cc2c(Cl)cncc2Cl)C2CC2)no1 [Example 106] | 2.4 |  |
| Cn1cc(C(=S)N(Cc2c(Cl)cncc2Cl)C2CC2)c(C(F)F)n1 [Example 104] | 2.93 |  |
| COc1nn(C)cc1C(=O)N(C1CC1)C(C)c1cnc(Cl)c(Cl)c1 (centres unmarked) [Example 6] | 2.29 |  |
| Cn1cc(C(=O)N(Cc2ccc(Cl)cn2)C2CC2)c(C(F)(F)F)n1 [Example 48] | 2.39 |  |
| Cc1nc(C(F)(F)F)ccc1CN(C(=O)c1cn(C)nc1C(F)F)C1CC1 [Example 87] | 2.51 |  |
| CC(c1cnc(Cl)c(Cl)c1)N(C(=O)c1cn(C)nc1C(F)F)C1CC1 (centres unmarked) [Example 5] | 2.67 |  |
| COc1nn(C)cc1C(=O)N(Cc1ccc(C(F)(F)F)nc1C)C1CC1 [Example 88] | 2.02 |  |
| COc1ccc(CN(C(=O)c2cc(C)n(C)n2)C2CC2)cn1 [Example 64] | 1.74 |  |
| Cc1nc(C(F)(F)F)c(C(=O)N(Cc2ccncc2)C2CC2)s1 [Example 13] | 0.93 |  |
| COc1ccnc(CN(C(=O)c2cn(C)cc2C(F)(F)F)C2CC2)c1OC [Example 112] | 1.32 |  |
| CCc1nn(C)c(F)c1C(=O)N(C1CC1)C(C)c1ncc(Cl)cc1Cl (centres unmarked) [Example 33] | 3.23 |  |
| Cc1ncoc1C(=O)N(Cc1c(Cl)cncc1Cl)C1CC1 [Example 105] | 2.04 |  |
| Cn1cc(C(=O)N(Cc2ccc(Oc3ccccc3)nc2)C2CC2)c(C(F)F)n1 [Example 36] | 2.61 |  |
| Cc1cc(C(=O)N(C2CC2)C(C)c2cnccn2)no1 (centres unmarked) [Example 45] | 1.65 |  |
| Cc1ccc(CN(C(=O)c2c(C)nn(C)c2F)C2CC2)cn1 [Example 7] | 0.43 |  |
| Cn1cc(C(=O)N(Cc2ccc(Cl)cn2)C2CC2)c(C(F)F)n1 [Example 54] | 2.08 |  |

| Compound | logP | chromatographic logP |
| --- | --- | --- |
| Cc1nn(C)cc1C(=O)N(C1CC1)C(C)c1ncc(Cl)cc1Cl (centres unmarked) [Example 27] | 2.4 |  |
| O=C(c1sccc1I)N(Cc1ccc(Cl)cn1)C1CC1 [Example 53] | 3.17 |  |
| COc1ccc(CN(C(=O)c2cn(C)nc2C)C2CC2)cn1 [Example 58] | 1.53 |  |
| Cn1cc(C(=O)N(Cc2ccncc2)C2CC2)c(C(F)(F)F)c1 [Example 16] | 0.99 |  |
| COc1ccc(CN(C(=O)c2ocnc2C)C2CC2)cn1 [Example 62] | 1.72 |  |
| Cc1nn(C)cc1C(=O)N(C1CC1)C(C)c1cnccn1 (centres unmarked) [Example 40] | 1.25 |  |
| O=C(c1ccsc1I)N(Cc1c(Cl)cncc1Cl)C1CC1 [Example 97] | 3.21 |  |
| CCOc1nn(C)cc1C(=O)N(Cc1ncc(Cl)cc1Cl)C1CC1 [Example 22] | 2.54 |  |
| Cn1nc(C(=O)N(Cc2ccncc2)C2CC2)c(C(F)(F)F)n1 [Example 15] | 1.03 |  |
| Cn1cc(C(=O)N(Cc2ccncc2)C2CC2)c(C(F)(F)F)n1 [Example 11] | 0.59 |  |
| Cc1nc(C(=O)N(Cc2c(Cl)cncc2Cl)C2CC2)c(C)o1 [Example 99] | 2.18 |  |
| COc1ccnc(CN(C(=O)c2ccsc2I)C2CC2)c1OC [Example 109] | 1.47 |  |
| CCC(c1ccncc1)N(C(=O)c1c(C)nn(C)c1F)C1CC1 (centres unmarked) [Example 17, N-cyclopropyl-N-[1-pyridin-4-yl-propyl]-5-fluoro-1,3-dimethyl-1H-pyrazole-4-carboxamide] |  | 0.92 |
| COc1ccc(CN(C(=O)c2cc(C)on2)C2CC2)cn1 [Example 63] | 2.08 |  |
| COc1ccnc(CN(C(=O)c2sc(C)nc2C(F)F)C2CC2)c1OC [Example 110] | 1.2 |  |
| CC(c1cccnc1Cl)N(C(=O)c1cn(C)nc1C(F)F)C1CC1 (racemic) [Example 81] | 1.88 |  |
| Cc1nc(C(F)(F)F)c(C(=O)N(Cc2ccc(Cl)cn2)C2CC2)s1 [Example 51] | 2.93 |  |
| Cc1ccc(CN(C(=O)c2cn(C)nc2C(F)F)C2CC2)cn1 [Example 8] | 0.52 |  |
| O=C(c1sccc1I)N(Cc1ncc(Cl)cc1Cl)C1CC1 [Example 26] | 4.16 |  |
| O=C(c1ccsc1I)N(Cc1ccc(Cl)nc1)C1CC1 [Example 66] | 2.67 |  |
| Cc1nc(C(=O)N(C2CC2)C(C)c2cnccn2)c(C)o1 (centres unmarked) [Example 39] | 1.55 |  |
| Cc1cc(C(=O)N(C2CC2)C(C)c2cccnc2Cl)no1 (racemic) [Example 83] | 2.07 |  |
| Cc1cc(C(=O)N(Cc2c(Cl)cncc2Cl)C2CC2)nn1C [Example 107] | 2 |  |

| Compound | logP | chromatographic logP |
| --- | --- | --- |
| Cc1nn(C)c(F)c1C(=O)N(C1CC1)C(C)c1cnc(Cl)c(Cl)c1 (centres unmarked) [Example 4] | 2.56 |  |
| COc1ccnc(CN(C(=O)c2c(C)nn(C)c2F)C2CC2)c1OC [Example 113, N-cyclopropyl-N-[(3,4-dimethoxypyridin-2-yl)methyl]-5-fluoro-1,3-dimethyl-1H-pyrazole-4-carboxamide] |  | 1.65 |
| Cc1nn(C)cc1C(=O)N(C1CC1)C(C)c1cccnc1Cl (racemic) [Example 78] | 1.58 |  |
| CCOc1nn(C)cc1C(=O)N(Cc1ccc(Cl)cn1)C1CC1 [Example 49] | 1.98 |  |
| COc1ccc(CN(C(=O)c2c(C)nn(C)c2F)C2CC2)cn1 [Example 60] | 1.64 |  |
| Cc1nc(C(F)(F)F)ccc1CN(C(=O)c1cn(C)nc1C(F)(F)F)C1CC1 [Example 85] | 2.82 |  |
| COc1ccnc(CN(C(=O)c2cn(C)nc2C(F)F)C2CC2)c1OC [Example 114] | 1.05 |  |
| Cc1nc(C(F)F)c(C(=O)N(Cc2ccncc2)C2CC2)s1 [Example 14] | 0.58 |  |
| Cc1nc(C(F)F)c(C(=O)N(Cc2ccc(Cl)cn2)C2CC2)s1 [Example 52] | 2.54 |  |
| Cc1nn(C)c(F)c1C(=O)N(Cc1ncc(Cl)cc1Cl)C1CC1 [Example 29] | 2.56 |  |
| Cn1cc(C(=S)N(Cc2ccc(Cl)nc2)C2CC2)c(C(F)F)n1 [Example 73] | 2.58 |  |
| COc1ccnc(CN(C(=O)c2nn(C)nc2C(F)(F)F)C2CC2)c1OC [Example 111] | 1.44 |  |
| Cc1nn(C)c(F)c1C(=O)N(C1CC1)C(C)c1ncc(Cl)cc1Cl (centres unmarked) [Example 28] | 2.77 |  |
| Cc1ncoc1C(=O)N(C1CC1)C(C)c1cnccn1 (centres unmarked) [Example 44] | 1.37 |  |
| Cn1cc(C(=O)N(Cc2ncc(Cl)cc2Cl)C2CC2)c(C(F)(F)F)n1 [Example 21] | 3.21 |  |
| COc1ccnc(CN(C(=O)c2cn(C)nc2C(F)(F)F)C2CC2)c1OC [Example 108] | 1.18 |  |
| Cc1nn(C)c(F)c1C(=O)N(Cc1cnc(Cl)cc1Cl)C1CC1 [Example 9] | 2.28 |  |
| Cc1cc(C(=O)N(C2CC2)C(C)c2cccnc2Cl)nn1C (racemic) [Example 84] | 1.78 |  |
| COc1ccnc(CN(C(=O)c2cn(C)nc2OC)C2CC2)c1OC [Example 115] | 0.56 |  |
| Cc1nc(C(F)F)c(C(=O)N(Cc2ncc(Cl)cc2Cl)C2CC2)s1 [Example 24] | 3.42 |  |
| Cc1cc(C(=O)N(C2CC2)C(C)c2cnc(Cl)c(Cl)c2)c(C)o1 (centres unmarked) [Example 3] | 3.7 |  |
| CC(c1ncc(Cl)cc1Cl)N(C(=O)c1cn(C)nc1C(F)F)C1CC1 (centres unmarked) [Example 31] | 3.01 |  |
| CC(c1cnccn1)N(C(=O)c1ccco1)C1CC1 (centres unmarked) [Example 38] | 1.62 |  |

| Compound | logP | chromatographic logP |
| --- | --- | --- |
| Cc1nn(C)c(F)c1C(=O)N(Cc1c(Cl)cncc1Cl)C1CC1 [Example 102] | 2.01 |  |
| Cc1ccoc1C(=O)N(Cc1c(Cl)cncc1Cl)C1CC1 [Example 101] | 2.87 |  |
| COc1ccc(CN(C(=O)c2occc2C)C2CC2)cn1 [Example 59] | 2.46 |  |
| Cc1nn(C)c(F)c1C(=S)N(C1CC1)C(C)c1ncc(Cl)cc1Cl (centres unmarked) [Example 30] | 3.9 |  |
| Cn1cc(C(=O)N(Cc2ccc(Cl)nc2)C2CC2)c(C(F)F)n1 [Example 72] | 1.97 |  |
| CC(c1cnc(Cl)c(Cl)c1)N(C(=O)c1cn(C)nc1C(F)(F)F)C1CC1 (centres unmarked) [Example 1] | 3.14 |  |
| Cc1nn(C)c(F)c1C(=O)N(Cc1ccc(Oc2ccccc2)nc1)C1CC1 [Example 35] | 2.39 |  |
| COc1ccc(CN(C(=O)c2ccsc2I)C2CC2)cn1 [Example 55] | 2.75 |  |
| COc1ccc(CN(C(=O)c2nc(C)oc2C)C2CC2)cn1 [Example 57] | 1.89 |  |
| COc1nn(C)cc1C(=O)N(Cc1ccc(Cl)nc1)C1CC1 [Example 74] | 1.56 |  |
| COc1ccc(CN(C(=O)c2cn(C)nc2C(F)F)C2CC2)cn1 [Example 61] | 1.8 |  |
| COc1ccc(CN(C(=O)c2ccco2)C2CC2)cn1 [Example 56] | 1.97 |  |
| CC(c1cnccn1)N(C(=O)c1cn(C)nc1C(F)F)C1CC1 (centres unmarked) [Example 42] | 1.47 |  |
| Cc1nn(C)cc1C(=O)N(Cc1c(Cl)cncc1Cl)C1CC1 [Example 100] | 1.8 |  |
| CC(c1cnccn1)N(C(=S)c1cn(C)nc1C(F)F)C1CC1 (centres unmarked) [Example 43] | 2.05 |  |
| Cc1nc(C(F)F)c(C(=O)N(C2CC2)C(C)c2ncc(Cl)cc2Cl)s1 (centres unmarked) [Example 20] | 3.64 |  |
| Cn1cc(C(=O)N(Cc2ccc(Cl)nc2)C2CC2)c(C(F)(F)F)n1 [Example 65] | 2.02 |  |
| CC(c1cnccn1)N(C(=O)c1ccsc1I)C1CC1 (centres unmarked) [Example 37] | 2.38 |  |
| Cc1ccoc1C(=O)N(C1CC1)C(C)c1cnccn1 (centres unmarked) [Example 41] | 2.04 |  |
| Cn1cc(C(=O)N(Cc2cnc(Cl)cc2Cl)C2CC2)c(C(F)F)n1 [Example 10] | 2.46 |  |
